According to ChEMBL document CHEMBL2202971, “Synthesis and anti-hyperglycemic activity of hesperidin derivatives” (2012):
Blank lines part the entries; values can stand above or below the compound they belong to. Calls of active or inactive are those of the source. The calls are words filed in the database; no cut-off is given here.

Tests used:
[1] = Inhibition of alpha glucosidase at 1 mM using pNPG substrate incubated for 60 mins
Mus musculus [2] = assay: Antihyperglycemic activity in streptozotocin-induced diabetic Kunming mouse model assessed as blood glucose level at 50 mg/kg/day, po for 10 days measured on day 3 post dose (reference value: 23.97 +/- 3.79 mM); format: functional
Mus musculus [3] = assay: Antihyperglycemic activity in streptozotocin-induced diabetic Kunming mouse model assessed as blood glucose level at 50 mg/kg/day, po for 10 days measured on day 10 post dose (reference value: 23.03 +/- 3.94 mM); format: functional
Mus musculus [4] = assay: Antihyperglycemic activity in streptozotocin-induced diabetic Kunming mouse model assessed as blood glucose level at 100 mg/kg/day, po for 10 days measured on day 1 post dose (reference value: 19.93 +/- 6.36 mM); format: functional
Mus musculus [5] = assay: Antihyperglycemic activity in streptozotocin-induced diabetic Kunming mouse model assessed as blood glucose level at 100 mg/kg/day, po for 10 days measured on day 10 post dose (reference value: 23.03 +/- 3.94 mM); format: functional
Mus musculus [6] = assay: Antihyperglycemic activity in streptozotocin-induced diabetic Kunming mouse model assessed as blood glucose level at 50 mg/kg/day, po for 10 days measured on day 7 post dose (reference value: 23.6 +/- 4.25 mM); format: functional
HepG2 = assay: Induction of glucose consumption in human HepG2 cells at 0.1 mM assessed as glucose concentration incubated for 36 hrs; format: functional
Mus musculus [7] = assay: Antihyperglycemic activity in streptozotocin-induced diabetic Kunming mouse model assessed as blood glucose level at 100 mg/kg/day, po for 10 days measured on day 3 post dose (reference value: 23.97 +/- 3.79 mM); format: functional
Mus musculus [8] = assay: Antihyperglycemic activity in streptozotocin-induced diabetic Kunming mouse model assessed as blood glucose level at 100 mg/kg/day, po for 10 days measured on day 7 post dose (reference value: 23.6 +/- 4.25 mM); format: functional
Mus musculus [9] = assay: Antihyperglycemic activity in streptozotocin-induced diabetic Kunming mouse model assessed as blood glucose level at 50 mg/kg/day, po for 10 days measured on day 1 post dose (reference value: 19.93 +/- 6.36 mM); format: functional

- inhibition [1]: Active
Structure (SMILES): COc1ccc(C2CC(=O)c3c(O)cc(OC(C)=O)cc3O2)cc1O (stereo not given)

- inhibition [1]: 53.3%
Structure (SMILES): COc1ccc(C2CC(=O)c3c(O)cc(OCc4ccccc4)cc3O2)cc1OC (stereo not given)

- inhibition [1]: Active
Structure (SMILES): COc1ccc(C2CC(=O)c3c(O)cc(O)cc3O2)cc1O (stereo not given)

- inhibition [1]: 54.8%
Structure (SMILES): C[C@H]1O[C@H](O[C@H]2[C@H](O)[C@@H](O)[C@@H](O[C@H]3[C@H](O)[C@@H](O)C(O)O[C@@H]3CO)O[C@@H]2CO)[C@H](O)[C@@H](O)[C@@H]1N[C@H]1C=C(CO)[C@@H](O)[C@H](O)[C@H]1O (stereo not given in full)

Second part, the compound before the results:

Structure (SMILES): COc1ccc(C2CC(=O)c3c(O)cc(OCc4ccccc4)cc3O2)cc1O (stereo not given)
- inhibition [1]: 55%
- Activity (Mus musculus [2]): 21.25 mM
- Activity (Mus musculus [3]): 20.1 mM
- Activity (Mus musculus [4]): 16.78 mM
- Activity (Mus musculus [5]): 13.23 mM
- Activity (Mus musculus [6]): 19.35 mM
- Activity (HepG2): 1.78 mM
- Activity (Mus musculus [7]): 20.12 mM
- Activity (Mus musculus [8]): 19.18 mM
- Activity (Mus musculus [9]): 17.5 mM

Structure (SMILES): COc1ccc(C2CC(=O)c3c(O)cc(OCCCCBr)cc3O2)cc1OC (stereo not given)
- inhibition [1]: Active

Structure (SMILES): CCC(=O)Oc1cc(O)c2c(c1)OC(c1ccc(OC)c(O)c1)CC2=O (stereo not given)
- inhibition [1]: Active

Structure (SMILES): COc1ccc(C2CC(=O)c3c(O)cc(O)cc3O2)cc1OC (stereo not given)
- inhibition [1]: Active

Structure (SMILES): COc1ccc(C2CC(=O)c3c(O)cc(OC(=O)c4ccccc4)cc3O2)cc1O (stereo not given)
- inhibition [1]: Active

Structure (SMILES): CCC(=O)Oc1cc(O)c2c(c1)OC(c1ccc(OC)c(OC)c1)CC2=O (stereo not given)
- inhibition [1]: Active

Structure (SMILES): CCCCOc1cc(O)c2c(c1)OC(c1ccc(OC)c(OC)c1)CC2=O (stereo not given)
- inhibition [1]: Active

Structure (SMILES): CN(C)C(=N)NC(=N)N [METFORMIN]
- Activity (Mus musculus [4]): 16.98 mM
- Activity (Mus musculus [5]): 10 mM
- Activity (HepG2): 2.11 mM
- Activity (Mus musculus [7]): 20.72 mM
- Activity (Mus musculus [8]): 14.47 mM
